Laboratory results: paper PMC11915372, “Identification of a Series Containing a Pentafluorophenyl Moiety That Targets Pks13 to Inhibit Growth of Mycobacterium tuberculosis” (ACS Infectious Diseases, 2025)
≈ marks a conversion by molar mass, not a printed value. Like-named read-outs stand apart in the source and are kept apart here.

What was measured:
[1] = assay type: in vitro ADME, mouse
[2] = system: HepG2 cells; experiment: HepG2 cytotoxicity; conditions: Homo sapiens
From the text: Assays to establish HepG2 cytotoxicity, in vitro microsomal/hepatocyte metabolic stability, aqueous kinetic solubility, and in vivo pharmacokinetic profiles were all performed as previously described.[15],[35]−[37]

[3] = system: M. tuberculosis (H37Rv); experiment: microbe, parasite or virus in culture; assay type: cell-based, Mycobacterium tuberculosis
[4] = assay type: in vitro ADME, mouse; remark: listed apart in the source
[5] = physchem; assay type: physicochemical
[6] = physchem; conditions: pH 7.4
[7] = intrinsic clearance (Cli), mouse hepatocytes, Tables 1-4
[8] = HepG2, read-out: HepG2 inhibitory concentration (IC50)
[9] = Mycobacterium tuberculosis, H37RV, read-out: H37Rv MIC A
[10] = Mycobacterium tuberculosis, H37RV, read-out: Wk2_7H9/DPPC/ casitone/ Tyloxapol MIC
[11] = Mycobacterium tuberculosis, H37RV, read-out: Wk2_7H9/glucose/ BSA/Tyloxapol MIC
[12] = Mycobacterium tuberculosis, H37RV, read-out: Wk2_7H9/glucose/ casitone/ Tyloxapol MIC
[13] = intrinsic clearance (Cli), CD1 mouse liver microsomes, Tables 1-4
[14] = kinetic solubility in water, read-out: Kin. Sol
[15] = pH 7.4, aqueous buffer, kinetic from dmso stock, pH7.4, read-out: Kinetic Solubility pH7.4
[16] = Mycobacterium tuberculosis, H37RV, read-out: H37Rv MIC B
[17] = Mycobacterium tuberculosis, H37RV, read-out: Wk2_ 7H9/DPPC/ cholesterol/BSA/ Tyloxapol MIC
[18] = pH 7.4, aqueous buffer, kinetic from dmso stock

Compound | IC50 [2, 8] | MIC [3, 9] | MIC [3, 10] | MIC [3, 11] | MIC [3, 12] | chromatographic logD [6] | Hepatocyte Cli ([1]; mouse) | Mouse Heps Cl ([1]; mouse, hepatocytes) | MIC [3, 16] | MIC [3, 17] | Microsomal Cli ([4]; CD1, mouse) | Mouse micro Cl ([4]; mouse, microsomes) | solubility kinetic [5, 18] | solubility kinetic ([5]; read-out: Kin. Sol) | also measured
COC(=O)c1nn(C)cc1NC(=O)c1c(F)c(F)c(F)c(F)c1F [Compound 19, COC(=O)c1nn(cc1NC(=O)c1c(c(c(c(c1F)F)F)F)F)C] | > 100 µM | 0.15 µM (≈ 0.0524 µg/mL) | 0.15 µM (≈ 0.0524 µg/mL) | 0.3 µM (≈ 0.105 µg/mL) | 0.2 µM (≈ 0.0698 µg/mL) | 2.7 | – | – | – | – | – | – | – | – | Mouse Heps Cl [1, 7]: >50 mLmin/g; Hepatocyte Cli ([1]; supplement data table): >50 mL/min/g; Mouse micro Cl [4, 13]: 23 mLmin/g; Microsomal Cli ([4]; supplement data table): 23 mL/min/g; solubility kinetic [5, 14]: 55 µM (≈ 19.2 µg/mL); solubility kinetic [5, 15]: 55 µM (≈ 19.2 µg/mL)
COC(=O)c1c(C)noc1NC(=O)c1c(F)c(F)c(F)c(F)c1F [Compound 22, COC(=O)c1c(noc1NC(=O)c1c(c(c(c(c1F)F)F)F)F)C] | > 100 µM | 0.97 µM (≈ 0.34 µg/mL) | 1 µM (≈ 0.35 µg/mL) | 2.3 µM (≈ 0.805 µg/mL) | 0.8 µM (≈ 0.28 µg/mL) | 1.5 | 46 mL/min/g | 45.6 mLmin/g | 3.1 µM (≈ 1.09 µg/mL) | 3.1 µM (≈ 1.09 µg/mL) | 3.8 mL/min/g | 3.8 mLmin/g | 242 µM (≈ 84.7 µg/mL) | 242 µM (≈ 84.7 µg/mL) | –
COC(=O)c1nc(C)oc1NC(=O)c1c(F)c(F)c(F)c(F)c1F [Compound 23, COC(=O)c1nc(oc1NC(=O)c1c(c(c(c(c1F)F)F)F)F)C] | > 100 µM | 0.6 µM (≈ 0.21 µg/mL) | 0.6 µM (≈ 0.21 µg/mL) | 1.2 µM (≈ 0.42 µg/mL) | 0.6 µM (≈ 0.21 µg/mL) | 1.4 | 8.1 mL/min/g | 8.1 mLmin/g | 1.2 µM (≈ 0.42 µg/mL) | 1.2 µM (≈ 0.42 µg/mL) | <0.5 mL/min/g | <0.5 mLmin/g | 237 µM (≈ 83 µg/mL) | 237 µM (≈ 83 µg/mL) | –
CCOC(=O)c1nc(C)oc1NC(=O)c1c(F)c(F)c(F)c(F)c1F [Compound 24, CCOC(=O)c1nc(oc1NC(=O)c1c(c(c(c(c1F)F)F)F)F)C] | > 100 µM | 0.27 µM (≈ 0.0983 µg/mL) | 0.271 µM (≈ 0.0987 µg/mL) | 0.434 µM (≈ 0.158 µg/mL) | 0.168 µM (≈ 0.0612 µg/mL) | 1.8 | 12 mL/min/g | – | 0.6 µM (≈ 0.219 µg/mL) | 0.6 µM (≈ 0.219 µg/mL) | <0.5 mL/min/g | – | 204 µM (≈ 74.3 µg/mL) | 204 µM (≈ 74.3 µg/mL) | MIC ([3]; read-out: H37Rv MIC A): 0.3 µM (≈ 0.109 µg/mL)
CCOC(=O)c1nc(C)oc1NC(=O)c1cc(F)c(F)c(F)c1F [Compound 25, CCOC(=O)c1nc(oc1NC(=O)c1cc(c(c(c1F)F)F)F)C] | > 100 µM | 0.3 µM (≈ 0.104 µg/mL) | 0.3 µM (≈ 0.104 µg/mL) | 0.6 µM (≈ 0.208 µg/mL) | 0.3 µM (≈ 0.104 µg/mL) | 2.5 | 17 mL/min/g | 17 mLmin/g | 0.6 µM (≈ 0.208 µg/mL) | 0.6 µM (≈ 0.208 µg/mL) | 5.1 mL/min/g | 5.1 mLmin/g | 136 µM (≈ 47.1 µg/mL) | 136 µM (≈ 47.1 µg/mL) | –
CCOC(=O)c1nc(C)oc1NC(=O)c1c(F)cc(F)c(F)c1F [Compound 27, CCOC(=O)c1nc(oc1NC(=O)c1c(cc(c(c1F)F)F)F)C] | > 100 µM | 3.1 µM (≈ 1.07 µg/mL) | 3.1 µM (≈ 1.07 µg/mL) | 4.7 µM (≈ 1.63 µg/mL) | 2.3 µM (≈ 0.796 µg/mL) | 1.9 | 3.4 mL/min/g | 3.4 mLmin/g | 4.7 µM (≈ 1.63 µg/mL) | 4.7 µM (≈ 1.63 µg/mL) | 0.8 mL/min/g | 0.80 mLmin/g | 232 µM (≈ 80.3 µg/mL) | 232 µM (≈ 80.3 µg/mL) | –
CCOC(=O)c1nc(C)oc1NC(=O)c1c(F)c(F)cc(F)c1F [Compound 28, CCOC(=O)c1nc(oc1NC(=O)c1c(c(cc(c1F)F)F)F)C] | – | > 50 µM | > 50 µM | > 50 µM | > 50 µM | 1.7 | – | – | > 50 µM | > 50 µM | – | – | – | – | Mouse Heps Cl [1, 7]: 0.88 mLmin/g; Hepatocyte Cli ([1]; supplement data table): 0.9 mL/min/g; IC50 ([2]; HepG2, read-out: Hs-HEPG IC50): > 100 µM; Mouse micro Cl [4, 13]: <0.5 mLmin/g; Microsomal Cli ([4]; supplement data table): <0.5 mL/min/g; solubility kinetic [5, 14]: 163 µM (≈ 56.4 µg/mL); solubility kinetic [5, 15]: 163 µM (≈ 56.4 µg/mL)
CCOC(=O)c1nc(C)oc1NCc1c(F)c(F)c(F)c(F)c1F [Compound 29, CCOC(=O)c1nc(oc1NCc1c(c(c(c(c1F)F)F)F)F)C] | > 100 µM | > 50 µM | > 50 µM | > 50 µM | > 50 µM | 3.2 | >50 mL/min/g | >50 mLmin/g | > 50 µM | > 50 µM | 32 mL/min/g | 32 mLmin/g | 23 µM (≈ 8.06 µg/mL) | 23 µM (≈ 8.06 µg/mL) | –
CCOC(=O)c1nc(C)oc1NS(=O)(=O)c1c(F)c(F)c(F)c(F)c1F [Compound 30, CCOC(=O)c1nc(oc1NS(=O)(=O)c1c(c(c(c(c1F)F)F)F)F)C] | > 100 µM | > 50 µM | > 50 µM | > 50 µM | > 50 µM | 1.4 | 0.8 mL/min/g | 0.78 mLmin/g | > 50 µM | > 50 µM | 0.9 mL/min/g | 0.94 mLmin/g | 171 µM (≈ 68.4 µg/mL) | 171 µM (≈ 68.4 µg/mL) | –
CCOC(=O)c1nc(C(C)C)oc1NC(=O)c1c(F)c(F)c(F)c(F)c1F [Compound 31, CCOC(=O)c1nc(oc1NC(=O)c1c(c(c(c(c1F)F)F)F)F)C(C)C] | > 100 µM | 0.1 µM (≈ 0.0392 µg/mL) | 0.1 µM (≈ 0.0392 µg/mL) | 0.6 µM (≈ 0.235 µg/mL) | 0.15 µM (≈ 0.0588 µg/mL) | 2.8 | 13 mL/min/g | 13 mL/min/g | 0.6 µM (≈ 0.235 µg/mL) | 0.6 µM (≈ 0.235 µg/mL) | 3.3 mL/min/g | 3.3 mL/min/g | 195 µM (≈ 76.5 µg/mL) | 195 µM (≈ 76.5 µg/mL) | –
CCOC(=O)c1nc(N(C)C)oc1NC(=O)c1c(F)c(F)c(F)c(F)c1F [Compound 32, CCOC(=O)c1nc(oc1NC(=O)c1c(c(c(c(c1F)F)F)F)F)N(C)C] | > 100 µM | 0.2 µM (≈ 0.0787 µg/mL) | 0.2 µM (≈ 0.0787 µg/mL) | 1.2 µM (≈ 0.472 µg/mL) | 0.3 µM (≈ 0.118 µg/mL) | 2.4 | 22 mL/min/g | 22 mL/min/g | 0.6 µM (≈ 0.236 µg/mL) | 0.6 µM (≈ 0.236 µg/mL) | 1.4 mL/min/g | 1.4 mL/min/g | 221 µM (≈ 86.9 µg/mL) | 221 µM (≈ 86.9 µg/mL) | –
CCOC(=O)c1nc(COC)oc1NC(=O)c1c(F)c(F)c(F)c(F)c1F [Compound 33, CCOC(=O)c1nc(oc1NC(=O)c1c(c(c(c(c1F)F)F)F)F)COC] | > 100 µM | 1.2 µM (≈ 0.473 µg/mL) | 1.2 µM (≈ 0.473 µg/mL) | 2.3 µM (≈ 0.907 µg/mL) | 1.2 µM (≈ 0.473 µg/mL) | 1.6 | 7.5 mL/min/g | 7.5 mL/min/g | 2.3 µM (≈ 0.907 µg/mL) | 2.3 µM (≈ 0.907 µg/mL) | <0.5 mL/min/g | <0.5 mL/min/g | 227 µM (≈ 89.5 µg/mL) | 227 µM (≈ 89.5 µg/mL) | –
CCOC(=O)c1nc(-c2ccccc2)oc1NC(=O)c1c(F)c(F)c(F)c(F)c1F [Compound 34, CCOC(=O)c1nc(oc1NC(=O)c1c(c(c(c(c1F)F)F)F)F)-c1ccccc1] | 93 µM | 0.8 µM (≈ 0.341 µg/mL) | 0.8 µM (≈ 0.341 µg/mL) | 4.7 µM (≈ 2 µg/mL) | 0.3 µM (≈ 0.128 µg/mL) | 3 | 10 mL/min/g | 10 mL/min/g | 4.7 µM (≈ 2 µg/mL) | 4.7 µM (≈ 2 µg/mL) | 6.9 mL/min/g | 6.9 mL/min/g | 21 µM (≈ 8.95 µg/mL) | 21 µM (≈ 8.95 µg/mL) | –
CCOC(=O)c1nc(CN(C)C)oc1NC(=O)c1c(F)c(F)c(F)c(F)c1F [Compound 35, CCOC(=O)c1nc(oc1NC(=O)c1c(c(c(c(c1F)F)F)F)F)CN(C)C] | > 100 µM | 2.3 µM (≈ 0.937 µg/mL) | 2.3 µM (≈ 0.937 µg/mL) | 4.7 µM (≈ 1.91 µg/mL) | 1.6 µM (≈ 0.652 µg/mL) | 1.3 | 4.7 mL/min/g | 4.7 mL/min/g | 4.7 µM (≈ 1.91 µg/mL) | 4.7 µM (≈ 1.91 µg/mL) | <0.5 mL/min/g | <0.5 mL/min/g | 225 µM (≈ 91.6 µg/mL) | 225 µM (≈ 91.6 µg/mL) | –
Cc1nc(C(=O)OC(C)(C)C)c(NC(=O)c2c(F)c(F)c(F)c(F)c2F)o1 [Compound 36, Cc1nc(c(o1)NC(=O)c1c(c(c(c(c1F)F)F)F)F)C(=O)OC(C)(C)C] | > 100 µM | 0.1 µM (≈ 0.0392 µg/mL) | 0.1 µM (≈ 0.0392 µg/mL) | 0.3 µM (≈ 0.118 µg/mL) | 0.1 µM (≈ 0.0392 µg/mL) | 2.8 | 26 mL/min/g | 26 mL/min/g | 0.4 µM (≈ 0.157 µg/mL) | 0.4 µM (≈ 0.157 µg/mL) | 1.1 mL/min/g | 1.1 mL/min/g | 127 µM (≈ 49.8 µg/mL) | 127 µM (≈ 49.8 µg/mL) | –
Cc1ncc(NC(=O)c2c(F)c(F)c(F)c(F)c2F)o1 [Compound 37, Cc1ncc(o1)NC(=O)c1c(c(c(c(c1F)F)F)F)F] | > 100 µM | > 50 µM | > 50 µM | > 50 µM | > 50 µM | 1.9 | 5.8 mL/min/g | 5.8 mL/min/g | > 50 µM | > 50 µM | <0.5 mL/min/g | <0.5 mL/min/g | 105 µM (≈ 30.7 µg/mL) | 105 µM (≈ 30.7 µg/mL) | –
